Results: patent US9387170B2, “Drug having regulatory cell ligand contained in liposome” (RIKEN, priority 2004, dated 2016)

How the values were obtained:
[1] = tested on: spleen whole cells from Vα14-NKT cell-deficient mouse; assay: Cytokine production in spleen whole cells from Vα14-NKT cell-deficient mouse; type: cell-based, Vα14-NKT cell-deficient mouse (C57BL/6 background); details: 100 ng/mL, 2 days
Description: (§1) Spleen whole cells at 2×10^5 from C57BL/6 mouse were suspended in 200 μL of 10% fetal calf serum (FCS)-containing RPMI medium to which 100 ng/mL Lipo-(−), Lipo-αGC or α-galactosyl ceramide aqueous solution (α-GalCer) had been added, then the cell suspension was added to a 96-well U bottom culture plate, and cultured in the incubator containing 5% CO2 at 37° C. for 2 days. The levels of IFN-γ, IL-4 and IL-10 produced in the culture supernatant were measured by ELISA (FIG. 7 upper panels). The levels of IFN-γ and IL-4 were equivalent in Lipo-αGC group and αGalCer group, but the level of IL-10 in the Lipo-α group was 5 times higher than that in the α-GalCer group. When the same experiments were performed in the presence of anti-CD1d neutralization antibody (1B1, BD Bioscience PharMingen) at a final concentration of 10 μg/mL or using spleen whole cells from Vα14-NKT cell-deficient mouse (C57BL/6 background), IFN-γ, IL-4 and IL-10 in the culture supernatant were not detected (FIG. 7, lower panels).

[2] = tested on: spleen dendritic cells (CD45RB/CD11c); assay: Analysis of dendritic cells in spleen of administered mice by flow cytometry; type: in vivo, BALB/c mice; details: 2 μg/mouse intraperitoneal, after 3 days
Description: Saline, α-GalCer, Lipo-(−) or Lipo-αGC (2 μg/mouse) was intraperitoneally administered in BALB/c mice, and after 3 days, the spleen was removed. Collagenase D (1 mg/mL, Roche) was injected into the spleen, which was then incubated in the CO2 incubator for 45 minutes. Subsequently, cells were collected from the spleen, suspended in 3 mL of HistoDenz (14.1%, SIGMA-Aldrich), and then the X-VIVO 15 medium (CAMBREX Bio Science Walkerville, Inc.) containing 50 μM 2-mercaptoethanol (2ME) was overlaid thereon. After centrifuging at 1,500 rpm for 5 minutes, the cells in the intermediate layer were collected. The cells were washed with the X-VIVO 15 medium containing 50 μm 2ME and 10% FCS, and suspended in phosphate buffered saline (PBS) containing 0.5% FCS. Biotinylated anti-CD3, -CD11b, -CD19, -CD49b, -Gr-1, -TER-119 and -B220 antibodies (all from BD Bioscience Pharmingen) were added to the cell suspension. The cells were incubated at 10° C. for 20 minutes, then washed once with PBS containing 0.5% FCS, and subsequently streptoavidin (SA)-conjugated magnetic beads (Miltenyi) were added thereto. […] The resulting cells were stained with PE-labeled anti-CD11c antibody (BD Bioscience Pharmingen) and APC-labeled anti-CD45RB antibody (BD Bioscience Pharmingen), and analyzed by flow cytometry. […]

[3] = tested on: spleen CD4+ T cells; assay: T cell activation ability using BDF1 mice (MTT proliferation of spleen CD4+ T cells); type: cell-based; details: 2 μg/mouse intraperitoneal, all DNP-OVA concentrations examined, 48 hours
Description: Saline, α-GalCer, Lipo-(−) or Lipo-αGC (2 μg/mouse) was intraperitoneally administered in BDF1 mice, after 3 days, which were primarily immunized with DNP-OVA and alum. After 7 days, the spleen was removed, and CD4^+ T cells were prepared using magnetic microbeads (Miltenyi). Subsequently, antigen presenting cells were prepared by irradiating spleen whole cells from the normal BDF1 mouse with radiation of 20 Gy. The CD4^+ T cells at 2×10^5 and the antigen presenting cells at 2×10^5 pulsed with DNP-OVA suspended in 200 μL of the medium were placed in one well of the 96-well U bottom culture plate, and cultured in the incubator containing 5% CO2 at 37° C. After 48 hours, cell proliferation was assayed by MTT method (Promega #G4000).

[4] = tested on: IgE antibody production; details: administered to C57BL/6 mice; cited from earlier work
[5] = tested on: IgE antibody production; details: same experiment, mice deleting the Vα14-NKT cells; cited from earlier work
[6] = tested on: antibody production; assay: In vivo antibody production system using BDF1 mice; details: 2 μg/mouse intraperitoneal, days 0, 14, 55 and 64
Description: Saline, α-GalCer, Lipo-(−) or Lipo-αGC (2 μg/mouse) was intraperitoneally administered in BDF1 mice (C57BL/6×DBA/2F1) (5 mice/group), after 3 days (day 0), which were primarily immunized with DNP-OVA and alum, and further the mice was boosted with DNP-OVA alone on the 55th day (day 55) after the primary immunization. On days 0, 14, 55 and 64, the blood was collected from the orbital venous plexus, and antibody titers of ant-DNP-IgE, anti-DNP-IgG1, anti-DNP-IgG2a, and the levels of total IgE, total IgG1 and total IgG2a in the plasma were measured by ELISA.

[7] = tested on: antibody production; assay: In vivo antibody production system using IL-10-deficient mice; parameters: species or system IL-10-deficient mice with C57BL/6 background; details: 2 μg/mouse intraperitoneal 3 days before immunization, day 14
Description: Saline, α-GalCer, Lipo-(−) or Lipo-αGC (2 μg/mouse) was intraperitoneally administered in C57BL/6 mice (5 mice/group), after 3 days, which were primarily immunized with DNP-OVA and alum. On the 14th day after the primary immunization, the blood was collected from the orbital venous plexus, and antibody titers of ant-DNP-IgG1, anti-DNP-IgE and anti-DNP-IgG2a in the plasma were measured by ELISA. […] The same experiment was performed using the IL-10-deficient mice with C57BL/6 background.

[8] = tested on: type I diabetes model; details: administered to NOD mice; cited from earlier work
[9] = tested on: spleen whole cells; assay: Cytokine production by Lipo-αGC in spleen whole cells; type: cell-based, C57BL/6 mouse
Description: as §1

[10] = tested on: NKT cells; details: cited from earlier work
[11] = tested on: immunopotentiation and anti-tumor effects; details: cited from earlier work
[12] = tested on: spleen CD11c+ DC; assay: In vitro activity of ligand-containing liposome for dendritic cells: cytokine production; type: cell-based, BALB/c or C57BL/6 mouse; details: liposome composition 1 μg/mL, 48 hours, ELISA
Description: Collagenase D (1 mg/mL, Roche) was injected into spleen from BALB/c or C57BL/6 mouse, which was then incubated in a CO2 incubator for 45 minutes. Subsequently, cells were collected from the spleen, suspended in 3 mL of HistoDenz (14.1%, SIGMA), and then X-VIVO 15 (Takara Bio) containing 50 μM 2-mercaptoethanol (2ME) was overlaid thereon. After centrifuging at 1,500 rpm for 5 minutes, the cells in an intermediate layer were collected and incubated in X-VIVO 15 medium containing 50 μM 2ME, 0.5% fetal calf serum and 20 ng/mL rmGM-CSF (Pharmingen) in the CO2 incubator for one and a half hours. After pipetting gently, the suspended cells were removed, the X-VIVO 15 medium containing 50 μM 2ME, 0.5% fetal calf serum and 20 ng/mL rmGM-CSF (Pharmingen) was added, and the cells were incubated in the CO2 incubator for 18 hours. The suspended cells were collected, and the cells bound to anti-CD11c antibody-magnetic microbeads (Miltenyi) were collected to render spleen CD11c^+ DC. The CD11c^+ DC at 1×10^4 cells were suspended in 200 μL of RPMI medium containing 10% fetal calf serum in a 96-well round bottom microtiter plate, the liposome composition at a final concentration of 1 μg/mL was added thereto, and the plate was incubated in the incubator containing 5% CO^2 at 37° C. After 48 hours, culture supernatants were collected, and levels of IFN-α, IL-10 and IL-12 were measured by ELISA (FIGS. 1 and 2). The levels of IL-10 and IFN-α were high whereas the levels of IL-12 were low in Lipo-β and Lipo-Imq groups. Conversely, in Lipo-β-CpG and Lipo-Imq-CpG groups, the levels of IL-10 and IFNα were low whereas the levels of IL-12 were high. […] In the same evaluation method, the production levels of IL-10 in CD11c^+ DC by Lipo-Imq-βGC were measured.

[13] = tested on: IgE; details: patients with atopic asthma; cited from earlier work
Chain of IgE (P01854 1-425 limits assumed): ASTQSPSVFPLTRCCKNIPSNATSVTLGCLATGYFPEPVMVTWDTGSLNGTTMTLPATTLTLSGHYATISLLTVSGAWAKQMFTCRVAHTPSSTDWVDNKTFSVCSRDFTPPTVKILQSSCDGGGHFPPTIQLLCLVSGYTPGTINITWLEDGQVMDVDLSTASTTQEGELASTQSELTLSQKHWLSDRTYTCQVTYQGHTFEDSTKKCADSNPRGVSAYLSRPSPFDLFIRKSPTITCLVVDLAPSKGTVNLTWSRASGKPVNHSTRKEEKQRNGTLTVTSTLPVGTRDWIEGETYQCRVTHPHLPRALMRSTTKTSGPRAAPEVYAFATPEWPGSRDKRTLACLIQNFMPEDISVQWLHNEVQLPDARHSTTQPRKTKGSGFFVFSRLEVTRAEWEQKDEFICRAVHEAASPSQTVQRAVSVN

[14] = in the presence of anti-CD1d neutralization antibody 10 μg/mL

Molecule: CCCCCCCCCCCCCCCCCCCCCCCCCC(=O)N[C@@H](CO[C@H]1O[C@H](CO)[C@H](O)[C@H](O)[C@H]1O)[C@H](O)[C@H](O)CCCCCCCCCCCCCC [α-GalCer, α-Galactosyl ceramide]
- IFN-γ in the culture supernatant [1]: not detected
- IL-4 in the culture supernatant [1]: not detected
- IL-10 in the culture supernatant [1]: not detected
- number of CD45RBlowCD11chigh cells in the spleen [2]: more than in the mouse administered with Lipo-αGC
- ratio of CD45RBhighCD11clow cells versus ratio of CD45RBlowCD11chigh cells [2]: reversed
- proliferation of CD4+ T cells in response to DNP-OVA [3]: highly proliferated
- production of IgE antibody induced by DNP-OVA and alum [4]: inhibited
- production of IgE antibody [5]: not inhibited
- changes of total IgG1, Lipo-αGC group versus α-GalCer or Lipo-(−) group [6]: nearly equivalent
- changes of total IgG2a, Lipo-αGC group versus α-GalCer or Lipo-(−) group [6]: nearly equivalent
- inhibitory effect on the antibody production [7]: no inhibitory effect
- symptoms in type I diabetes model [8]: symptomatic improvement was observed
- level of IFN-γ in culture supernatant, Lipo-αGC group versus αGalCer group ([9]; 100 ng/mL, 2 days, ELISA): equivalent
- level of IL-4 in culture supernatant, Lipo-αGC group versus αGalCer group ([9]; 100 ng/mL, 2 days, ELISA): equivalent
- IFN-γ in the culture supernatant [9, 14]: not detected
- IL-4 in the culture supernatant [9, 14]: not detected
- IL-10 in the culture supernatant [9, 14]: not detected
- cytokine production of both IFN-γ and IL-4 [10]: induces

Molecule: ceramide β-D-galactoside [β-GalCer]
- activity compared with immunopotentiation and anti-tumor effects of α-galactosyl ceramide compound [11]: much lower activity
- level of IFN-α in culture supernatant [12]: not detected or was very low
- level of IL-10 in culture supernatant [12]: not detected or was very low
- level of IL-12 in culture supernatant [12]: not detected or was very low

Molecule: rhuMAb-E25: humanized anti-IgE antibody (Genentech Inc.)
- effectiveness in clinical trials [13]: highly effective

Molecule: β-glycosyl ceramide
- activity compared with immunopotentiation and anti-tumor effects of α-galactosyl ceramide compound [11]: much lower activity
